In ChEMBL document CHEMBL1275270, “Antioxidant activity of unexplored indole derivatives: synthesis and screening” (Eur J Med Chem, 2010):
The source made the active and inactive calls. The calls are words filed in the database; no cut-off is given here.

How the values were obtained:
Assay type in all cases: functional
[1] = Antioxidant activity assessed as trolox equivalent of peroxyl radical scavenging activity by ORAC assay
[2] = Antioxidant activity assessed as inhibition of singlet oxygen-induced oxidation of DHR by rhodamine 123 staining
[3] = Antioxidant activity assessed as inhibition of H2O2-induced oxidation of lucigenin
[4] = Antioxidant activity assessed as inhibition of nitric oxide-induced oxidation of non-fluorescent DAF-2 by fluorescence assay
[5] = Antioxidant activity assessed as superoxide radical scavenging activity by NBT reduction assay
[6] = Antioxidant activity assessed as inhibition of peroxynitrite anion-induced oxidation of non-fluorescent DHR by rhodamine 123 staining in presence of NaHCO3
[7] = Antioxidant activity assessed as inhibition of HOCl-induced oxidation of DHR by rhodamine 123 staining
[8] = Antioxidant activity assessed as inhibition of peroxynitrite anion-induced oxidation of non-fluorescent DHR by rhodamine 123 staining in absence of NaHCO3

For `CC(C)=CCn1cc(CCN2C(=O)c3ccccc3C2=O)c2ccccc21`, the “fold change (FC)” value [1] was “inactive”, the IC50 [2] was “Not Active” and the inhibition [3] was “inactive”. For the same compound, the IC50 [4] was “Not Active”, the Activity [5] was “inactive” and the IC50 [6] was 192 µM. The IC50 [7] was 6.34 µM and the IC50 [8] was “Not Active”.
In the case of `N[C@@H](Cc1c[nH]c2ccccc12)C(=O)O` [TRYPTOPHAN], the fold change (FC) [1] is reported as 2.74, the IC50 ([2]; read-out: IC50) is reported as 992 µM and the inhibition [3] is reported as “inactive”. The IC50 ([4]; read-out: IC50) was 1150 µM, the Activity [5] was “inactive” and the IC50 [6] was 19.2 µM. For the same compound, the IC50 [7] was 3.5 µM and the IC50 ([8]; read-out: IC50) was 31.9 µM.
For `COC(=O)[C@H](Cc1cn(CCCc2ccccc2)c2ccccc12)NC(C)=O`, the fold change (FC) [1] was 0.44, the IC50 ([2]; read-out: IC50) was 506 µM and the inhibition [3] was “inactive”. The IC50 [4] was “Not Active”, the Activity [5] was “inactive” and the IC50 [6] was 142 µM. For the same compound, the IC50 [7] was 14.2 µM and the IC50 [8] was “Not Active”.
With `COC(=O)C(Cc1c[nH]c2ccccc12)N1C(=O)c2ccccc2C1=O` (stereo not given) the fold change (FC) [1] was 1.09, the IC50 ([2]; read-out: IC50) was 943 µM and the inhibition [3] was “inactive”. The IC50 [4] was “Not Active”, the Activity [5] was “inactive” and the IC50 [6] was 29.5 µM. It also gave an IC50 [7] of 27.3 µM and an IC50 ([8]; read-out: IC50) of 208 µM.
With `NCCc1c[nH]c2ccccc12` [TRYPTAMINE] the fold change (FC) [1] was 1.86, the IC50 ([2]; read-out: IC50) was 682 µM and the inhibition [3] was “inactive”. The IC50 ([4]; read-out: IC50) was 672 µM, the Activity [5] was “inactive” and the IC50 [6] was 10.4 µM. It also gave an IC50 [7] of 6 µM and an IC50 ([8]; read-out: IC50) of 31.8 µM.
In the case of `COC(=O)[C@H](Cc1c[nH]c2ccccc12)NC(C)=O`, the fold change (FC) [1] is reported as 1.21, the IC50 ([2]; read-out: IC50) is reported as 1560 µM and the inhibition [3] is reported as “inactive”. The IC50 [4] was “Not Active”, the Activity [5] was “inactive” and the IC50 [6] was 22.9 µM. For the same compound, the IC50 [7] was 50 µM and the IC50 ([8]; read-out: IC50) was 223 µM.
With `CC(C)=CCc1[nH]c2ccccc2c1CC(N)C(=O)O` (stereo not given) the fold change (FC) [1] was 0.48, the inhibition [3] was “inactive” and the Activity [5] was “inactive”. For the same compound, the IC50 [7] was 4.56 µM.
For `COC(=O)[C@H](Cc1cn(C/C=C/c2ccccc2)c2ccccc12)NC(C)=O`, the fold change (FC) [1] was 0.44, the IC50 ([2]; read-out: IC50) was 971 µM and the inhibition [3] was “inactive”. For the same compound, the IC50 [4] was “Not Active”, the Activity [5] was “inactive” and the IC50 [6] was 36.3 µM. For the same compound, the IC50 [7] was 67.7 µM and the IC50 ([8]; read-out: IC50) was 218 µM.
With `COC(=O)[C@H](Cc1cn(CC=C(C)C)c2ccccc12)NC(C)=O` the fold change (FC) [1] was 0.21, the IC50 ([2]; read-out: IC50) was 777 µM and the inhibition [3] was “inactive”. For the same compound, the IC50 ([4]; read-out: IC50) was 980 µM, the Activity [5] was “inactive” and the IC50 [6] was 162 µM. It also gave an IC50 [7] of 32.8 µM and an IC50 ([8]; read-out: IC50) of 545 µM.
For `COC(=O)C(Cc1c(CCC(C)C)[nH]c2ccccc12)N1C(=O)c2ccccc2C1=O` (stereo not given), the fold change (FC) [1] was 0.97, the IC50 ([2]; read-out: IC50) was 750 µM and the inhibition [3] was “inactive”. The IC50 [4] was “Not Active”, the Activity [5] was “inactive” and the IC50 [6] was 14 µM. The IC50 [7] was 3.75 µM and the IC50 [8] was “Not Active”.
In the case of `COC(=O)[C@@H](N)Cc1c[nH]c2ccccc12` [TRYPTOPHAN METHYL ESTER], the fold change (FC) [1] is reported as 2.6, the IC50 ([2]; read-out: IC50) is reported as 1040 µM and the inhibition [3] is reported as “inactive”. For the same compound, the IC50 [4] was “Not Active”, the Activity [5] was “inactive” and the IC50 [6] was 13.1 µM. The IC50 [7] was 9.6 µM and the IC50 ([8]; read-out: IC50) was 47.8 µM.
With `COC(=O)C(Cc1cn(CC=C(C)C)c2ccccc12)N1C(=O)c2ccccc2C1=O` (stereo not given) the fold change (FC) [1] was 0.36, the IC50 ([2]; read-out: IC50) was 2860 µM and the inhibition [3] was “inactive”. The IC50 [4] was “Not Active”, the Activity [5] was “inactive” and the IC50 [6] was 241 µM. The IC50 [7] was 34.3 µM and the IC50 [8] was “Not Active”.
With `CC(C)CCn1cc(CCN2C(=O)c3ccccc3C2=O)c2ccccc21` the “fold change (FC)” value [1] was “inactive”, the IC50 ([2]; read-out: IC50) was 1030 µM and the inhibition [3] was “inactive”. The IC50 ([4]; read-out: IC50) was 1530 µM, the Activity [5] was “inactive” and the IC50 [6] was 237 µM. The IC50 [7] was 10.6 µM and the IC50 [8] was “Not Active”.
For `COC(=O)[C@H](Cc1cn(CCC(C)C)c2ccccc12)NC(C)=O`, the fold change (FC) [1] was 0.28, the IC50 ([2]; read-out: IC50) was 718 µM and the inhibition [3] was “inactive”. The IC50 [4] was “Not Active”, the Activity [5] was “inactive” and the IC50 [6] was 315 µM. For the same compound, the IC50 [7] was 8.35 µM and the IC50 ([8]; read-out: IC50) was 548 µM.
In the case of `CC(C)=CCn1cc(CCN)c2ccccc21`, the fold change (FC) [1] is reported as 0.96, the IC50 ([2]; read-out: IC50) is reported as 618 µM and the inhibition [3] is reported as “inactive”. The IC50 ([4]; read-out: IC50) was 1430 µM, the Activity [5] was “inactive” and the IC50 [6] was 234 µM. It also gave an IC50 [7] of 26.2 µM and an IC50 ([8]; read-out: IC50) of 905 µM.
With `COC(=O)C(Cc1c(CC=C(C)C)[nH]c2ccccc12)N1C(=O)c2ccccc2C1=O` (stereo not given) the fold change (FC) [1] was 0.45, the IC50 ([2]; read-out: IC50) was 2310 µM and the inhibition [3] was “inactive”. The IC50 ([4]; read-out: IC50) was 239 µM, the Activity [5] was “inactive” and the IC50 [6] was 28.2 µM. For the same compound, the IC50 [7] was 7.18 µM and the IC50 [8] was “Not Active”.
For `CC(C)=CCn1cc(CC(N)C(=O)O)c2ccccc21` (stereo not given), the fold change (FC) [1] was 1.05, the IC50 ([2]; read-out: IC50) was 841 µM and the inhibition [3] was “inactive”. For the same compound, the IC50 ([4]; read-out: IC50) was 208 µM, the Activity [5] was “inactive” and the IC50 [6] was 42.4 µM. It also gave an IC50 [7] of 4.13 µM and an IC50 ([8]; read-out: IC50) of 94.7 µM.
For `O=C1c2ccccc2C(=O)N1CCc1c[nH]c2ccccc12`, the fold change (FC) [1] was 1.46, the IC50 [2] was “Not Active” and the inhibition [3] was “inactive”. For the same compound, the IC50 [4] was “Not Active”, the Activity [5] was “inactive” and the IC50 [6] was 40.9 µM. It also gave an IC50 [7] of 11.1 µM and an IC50 ([8]; read-out: IC50) of 93 µM.
